Laboratory results: US10117848B2, “Highly water-soluble salts of a short acting phenylalkylamine calcium channel blocker and uses thereof” (Milestone Pharmaceuticals Inc., priority 2015, dated 2018)

What was measured:
[1] = test system: patients suffering from an episode of PSVT; assay: Nasal administration of acetate salt solutions to patients in a PSVT episode, monitored by electrocardiography; assay type: in vivo, human
Description: A common method of measuring the effectiveness of a therapeutic agent in terminating an episode of a cardiac arrhythmia, such as PSVT, is by analysis of an electrocardiogram (ECG) recorded from a patient experiencing such an episode. […] One of the key features of healthy cardiac signaling is a temporal delay between the initiation of atrial and ventricular action potentials. A delay between signaling in the atria and ventricles is necessary for efficient pumping of blood. Signaling in the atria must proceed first, such that all blood in the atrial chambers is expelled into the ventricles before the ventricles contract. […]
It has been shown that an increase of at least 10% in the PR segment of an […] recorded from a patient suffering from a cardiac arrhythmia correlates well with a termination of the PSVT episode. […] The solutions that were administered to patients contained varying concentrations of the acetate salt of compound I. During the study, a solution containing a particular concentration of the acetate salt of compound I was administered to a patient experiencing an episode of PSVT, and the patient was monitored by electrocardiography throughout the duration of the experiment. […]

[2] = Solubility in aqueous solution; assay type: physicochemical; settings: acid addition salts of compound I
[3] = Homogeneity (no observable precipitation) of concentrated aqueous solutions on storage; assay type: physicochemical
[4] = test system: nasal epithelium; assay: Permeation through the nasal epithelium with EDTA; settings: use of EDTA in the formulation
Description: The nasal vestibule, which accounts for approximately 3-4% of the surface area of the nasal cavity, lacks tight junctions altogether and is thus not affected by calcium chelating agents. […] As such, it has been postulated that the nasal epithelium is not susceptible to permeability modulation by EDTA (Aungst, et al., Pharma. Res., 1998, 5:305-308). Additionally, the ability of EDTA to increase permeation of a compound through the nasal epithelium is attenuated as the molecular weight of the compound increases (Nakanishi, et al., Chem. Pharm. Bull., 1984, 32:1628-1632).

[5] = test system: patients treated for an episode of PSVT; settings: intravenous; cited from earlier work
[6] = test system: patients suffering from an episode of PSVT; settings: therapeutic dose, intravenous; cited from earlier work
[7] = 300 mg/mL, 1 eq methanesulfonic acid, 10 mM sodium acetate, 5 mM disodium EDTA, pH 4.5
[8] = 350 mg/mL, 1 eq acetic acid, pH 4.5 with 3.6 M sulfuric acid
[9] = 400 mg/mL, 1 eq methanesulfonic acid, 10 mM sodium acetate, 5 mM disodium EDTA, pH 4.5

For CC(=O)O.COC(=O)c1cccc(CCN(C)CCC[C@@](C#N)(c2ccc(OC)c(OC)c2)C(C)C)c1 [acetate salt of compound I], the “median PR prolongation” value ([1]; solutions containing 60 mg or greater of compound I, patients experiencing a PSVT episode, ECG) was “greater than 10%” and the “solubility in aqueous solution” value [2] was “high solubility”.

With COC(=O)c1cccc(CCN(C)CCCC(C#N)(c2ccc(OC)c(OC)c2)C(C)C)c1 (stereo not shown) [compound I, methyl 3-(2-((4-cyano-4-(3,4-dimethoxyphenyl)-5-methylhexyl)(methyl)amino)ethyl)benzoate] the “effectiveness in terminating an episode of PSVT” value ([1]; dosage containing 60 mg of compound I) was “therapeutically effective”, the “homogeneity at 2-5° C.” value [3, 7] was “remains homogeneous” and the “homogeneity at room temperature” value [3, 7] was “remains homogeneous”. For the same molecule, the “time solution remains homogeneous at 0° C.” value [3, 7] was “at least 7 days”, the “homogeneity at room temperature” value [3, 8] was “remains homogeneous” and the “time solution remains homogeneous at 10° C.” value [3, 8] was “at least 3 days”. The “homogeneity at 2-5° C.” value [3, 9] was “remains homogeneous”, the “homogeneity at room temperature” value [3, 9] was “remains homogeneous” and the “time solution remains homogeneous at 0° C.” value [3, 9] was “at least 7 days”. For the same molecule, the “homogeneity at room temperature” value ([3]; highly concentrated solutions, 0.5-1.5 molar equivalents of acetic acid or methanesulfonic acid) was “remain homogeneous”, the “homogeneity at room temperature” value ([3]; over 500 mg/mL, 1 eq acetic acid, pH 4.5 with 3.6 M sulfuric acid) was “remains homogeneous” and the “permeation through the nasal epithelium” value [4] was “increased the permeation”.

For OC[C@H]1O[C@@H](n2cnc3c(N[C@@H]4CCOC4)ncnc32)[C@H](O)[C@@H]1O [tecadenoson], the “average PR prolongation” value [5] is given as 8.5%, the “efficacy of PSVT termination” value [5] is given as “approximately 86%” and the “patients treated who experienced relief from an episode of PSVT” value [5] is given as 32 out of 37.

In the case of COc1ccc(CCN(C)CCCC(C#N)(c2ccc(OC)c(OC)c2)C(C)C)cc1OC (stereo not shown) [verapamil, 2-(3,4-dimethoxyphenyl)-5-[2-(3,4-dimethoxyphenyl)ethyl-methylamino]-2-propan-2-ylpentanenitrile], the PR prolongation [6] is given as “at least 10%” and the “efficacy for terminating the PSVT episode” value [6] is given as 85-90%.
